Several values for one entry are separate records, joined by “and”; a condition that tells them apart may be missing. Identical values can stand only once.
Test system: MPNST multicellular tumor spheroids, viability % test/control
Assay: Anticancer human tumor MPNST cell line growth inhibition;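 further: spheroids exposed to agents for seven days after three days of growth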;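 on viability, T/C: luminescence signal used as surrogate for viable cell amount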
Details: for viability, T/C: stronger effect = lower value
In short: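 Single agents and combinations were tested on spheroids built from tumor cells plus HUVEC and hMSC, at half-log dilutions starting at or near clinical Cmax, else 10 microM; final DMSO 0.25% (v/v).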

[1] = curve of first compound, second compound 1 µM
[2] = curve of first compound, second compound 3.16 µM
[3] = curve of first compound, second compound 10 µM
[4] = curve of first compound, second compound 31.6 µM
[5] = curve of first compound, second compound 100 µM
[6] = second compound 1 µM, first compound 0.0316 µM
[7] = second compound 1 µM, first compound 0.1 µM
[8] = second compound 1 µM, first compound 0.316 µM
[9] = second compound 1 µM, first compound 1 µM
[10] = second compound 1 µM, first compound 3.16 µM
[11] = second compound 1 µM, first compound 10 µM
[12] = second compound 3.16 µM, first compound 0.0316 µM
[13] = second compound 3.16 µM, first compound 0.1 µM
[14] = second compound 3.16 µM, first compound 0.316 µM
[15] = second compound 3.16 µM, first compound 1 µM
[16] = second compound 3.16 µM, first compound 3.16 µM
[17] = second compound 3.16 µM, first compound 10 µM
[18] = second compound 10 µM, first compound 0.0316 µM
[19] = second compound 10 µM, first compound 0.1 µM
[20] = second compound 10 µM, first compound 0.316 µM
[21] = second compound 10 µM, first compound 1 µM
[22] = second compound 10 µM, first compound 3.16 µM
[23] = second compound 10 µM, first compound 10 µM
[24] = second compound 31.6 µM, first compound 0.0316 µM
[25] = second compound 31.6 µM, first compound 0.1 µM
[26] = second compound 31.6 µM, first compound 0.316 µM
[27] = second compound 31.6 µM, first compound 1 µM
[28] = second compound 31.6 µM, first compound 3.16 µM
[29] = second compound 31.6 µM, first compound 10 µM
[30] = second compound 100 µM, first compound 0.0316 µM
[31] = second compound 100 µM, first compound 0.1 µM
[32] = second compound 100 µM, first compound 0.316 µM
[33] = second compound 100 µM, first compound 1 µM
[34] = second compound 100 µM, first compound 3.16 µM
[35] = second compound 100 µM, first compound 10 µM

What does the source list for `CC1COCCN1c1cc(-c2ccnn2C)c2ccnc(-c3ccn[nH]3)c2n1` (stereo not given) + Cn1nnc2c(C(N)=O)ncn2c1=O?
IC50 [1]: 198 nM; IC50 [2]: 238 nM; IC50 [3]: 142 nM; IC50 [4]: 386 nM; IC50 [5]: 182 nM; viability, T/C [6]: 62%; viability, T/C [7]: 55.8%; viability, T/C [8]: 45.8%; viability, T/C [9]: 39.7%; viability, T/C [10]: 34.1%; viability, T/C [11]: 35.3%; viability, T/C [12]: 62.2%; viability, T/C [13]: 56.2%; viability, T/C [14]: 47.9%; viability, T/C [15]: 39.5%; viability, T/C [16]: 31%; viability, T/C [17]: 31.9%; viability, T/C [18]: 64.2%; viability, T/C [19]: 52.2%; viability, T/C [20]: 45.2%; viability, T/C [21]: 38.2%; viability, T/C [22]: 35.9%; viability, T/C [23]: 34.4%; viability, T/C [24]: 61.8%; viability, T/C [25]: 57.1%; viability, T/C [26]: 52.5%; viability, T/C [27]: 41.2%; viability, T/C [28]: 32.2%; viability, T/C [29]: 31.5%; viability, T/C [30]: 63.6%; viability, T/C [31]: 54.4%; viability, T/C [32]: 46.1%; viability, T/C [33]: 37.1%; viability, T/C [34]: 30.2%; viability, T/C [35]: 31.8%

`CC[C@@]1(O)C(=O)OCc2c1cc1n(c2=O)Cc2cc3c(CN(C)C)c(O)ccc3nc2-1` was tested. Which viability, T/C (compound 0.03 µM) did it give?
Its viability, T/C is 53% [middle of 10 runs].

What about the viability, T/C (compound 0.3 µM) of the same compound?
Its viability, T/C is 41.1% [middle of 10 runs].

And the IC50 (compound alone, run of 12/16/2019)?
The IC50 was 28.5 nM [middle of 5 runs].

Which results are given for `COc1ccc([C@@H](O)c2cc(-c3ncnc4cc(N5CCOCC5)ccc34)c(F)cc2Cl)nn1` + Cn1nnc2c(C(N)=O)ncn2c1=O?
IC50 [1]: 1650 nM; IC50 [2]: 1510 nM; IC50 [3]: 1820 nM; IC50 [4]: 2070 nM; IC50 [5]: 1580 nM; viability, T/C [6]: 93.3%; viability, T/C [7]: 90.2%; viability, T/C [8]: 73.2%; viability, T/C [9]: 59%; viability, T/C [10]: 39.5%; viability, T/C [11]: 23%; viability, T/C [12]: 76.4%; viability, T/C [13]: 99.1%; viability, T/C [14]: 80%; viability, T/C [15]: 57.7%; viability, T/C [16]: 35.9%; viability, T/C [17]: 23.4%; viability, T/C [18]: 86.8%; viability, T/C [19]: 74.9%; viability, T/C [20]: 73%; viability, T/C [21]: 65.5%; viability, T/C [22]: 36.6%; viability, T/C [23]: 24.2%; viability, T/C [24]: 81.2%; viability, T/C [25]: 72.8%; viability, T/C [26]: 75.2%; viability, T/C [27]: 66.5%; viability, T/C [28]: 40.4%; viability, T/C [29]: 26.4%; viability, T/C [30]: 76.3%; viability, T/C [31]: 90.8%; viability, T/C [32]: 68.4%; viability, T/C [33]: 57.7%; viability, T/C [34]: 39.7%; viability, T/C [35]: 25.6%

Which results are given for `Cn1ncnc1[C@H]1c2n[nH]c(=O)c3cc(F)cc(c23)N[C@@H]1c1ccc(F)cc1` + CC[C@@]1(O)C(=O)OCc2c1cc1n(c2=O)Cc2cc3c(CN(C)C)c(O)ccc3nc2-1?
IC50 (curve of first compound, second compound 0.003 µM): > 3000 nM; IC50 (curve of first compound, second compound 0.00949 µM): > 3000 nM; IC50 (curve of first compound, second compound 0.03 µM): > 3000 nM; IC50 (curve of first compound, second compound 0.0949 µM): > 3000 nM; IC50 (curve of first compound, second compound 0.3 µM): < 9.49 nM; viability, T/C (second compound 0.003 µM, first compound 0.00949 µM): 90.6%; viability, T/C (second compound 0.003 µM, first compound 0.03 µM): 77.2%; viability, T/C (second compound 0.003 µM, first compound 0.0949 µM): 72.3%; viability, T/C (second compound 0.003 µM, first compound 0.3 µM): 68.7%; viability, T/C (second compound 0.003 µM, first compound 0.949 µM): 62.2%; viability, T/C (second compound 0.003 µM, first compound 3 µM): 60.1%; viability, T/C (second compound 0.00949 µM, first compound 0.00949 µM): 65%; viability, T/C (second compound 0.00949 µM, first compound 0.03 µM): 65.6%; viability, T/C (second compound 0.00949 µM, first compound 0.0949 µM): 60.5%; viability, T/C (second compound 0.00949 µM, first compound 0.3 µM): 63.9%; viability, T/C (second compound 0.00949 µM, first compound 0.949 µM): 59.4%; viability, T/C (second compound 0.00949 µM, first compound 3 µM): 59.9%; viability, T/C (second compound 0.03 µM, first compound 0.00949 µM): 56.7%; viability, T/C (second compound 0.03 µM, first compound 0.03 µM): 59%; viability, T/C (second compound 0.03 µM, first compound 0.0949 µM): 61.1%; viability, T/C (second compound 0.03 µM, first compound 0.3 µM): 59.7%; viability, T/C (second compound 0.03 µM, first compound 0.949 µM): 64%; viability, T/C (second compound 0.03 µM, first compound 3 µM): 61.1%; viability, T/C (second compound 0.0949 µM, first compound 0.00949 µM): 59.7%; viability, T/C (second compound 0.0949 µM, first compound 0.03 µM): 55.8%; viability, T/C (second compound 0.0949 µM, first compound 0.0949 µM): 58.8%; viability, T/C (second compound 0.0949 µM, first compound 0.3 µM): 61.6%; viability, T/C (second compound 0.0949 µM, first compound 0.949 µM): 59.1%; viability, T/C (second compound 0.0949 µM, first compound 3 µM): 55.6%; viability, T/C (second compound 0.3 µM, first compound 0.00949 µM): 49.5%; viability, T/C (second compound 0.3 µM, first compound 0.03 µM): 48.5%; viability, T/C (second compound 0.3 µM, first compound 0.0949 µM): 49.2%; viability, T/C (second compound 0.3 µM, first compound 0.3 µM): 52.7%; viability, T/C (second compound 0.3 µM, first compound 0.949 µM): 53%; viability, T/C (second compound 0.3 µM, first compound 3 µM): 46.3%

How did the IC50 [1] turn out when `COc1cc(C)[nH]c(=O)c1CN1CCc2c(Cl)cc(C(OC)C3COC3)c(Cl)c2C1=O` (stereo not given) + Cn1nnc2c(C(N)=O)ncn2c1=O was run?
Its IC50 is greater than 10000 nM.

And the IC50 [2]?
The IC50 was greater than 10000 nM.

And the IC50 [3]?
The IC50 was greater than 10000 nM.

What about the IC50 [4] of the same compound?
Its IC50 is greater than 10000 nM.

And the IC50 [5]?
The IC50 was greater than 10000 nM.

And the viability, T/C [6]?
The viability, T/C was 89.9%.

And the viability, T/C [7]?
The viability, T/C was 80.4%.

And the viability, T/C [8]?
The viability, T/C was 78.7%.

What about the viability, T/C [9] of the same compound?
The viability, T/C was 88.5%.

What about the viability, T/C [10] of the same compound?
Its viability, T/C is 94.2%.

What about the viability, T/C [11] of the same compound?
The viability, T/C was 107%.

What about the viability, T/C [12] of the same compound?
The viability, T/C was 87.7%.

And the viability, T/C [13]?
The viability, T/C was 84.4%.

And the viability, T/C [14]?
The viability, T/C was 122%.

And the viability, T/C [15]?
The viability, T/C was 97.4%.

What about the viability, T/C [16] of the same compound?
Its viability, T/C is 150%.

And the viability, T/C [17]?
The viability, T/C was 95.9%.

What about the viability, T/C [18] of the same compound?
Its viability, T/C is 81.5%.

What about the viability, T/C [19] of the same compound?
Its viability, T/C is 106%.

And the viability, T/C [20]?
Its viability, T/C is 101%.

What about the viability, T/C [21] of the same compound?
Its viability, T/C is 97.8%.

What about the viability, T/C [22] of the same compound?
The viability, T/C was 99.9%.

What about the viability, T/C [23] of the same compound?
The viability, T/C was 92.8%.

And the viability, T/C [24]?
Its viability, T/C is 79.1%.

What about the viability, T/C [25] of the same compound?
Its viability, T/C is 74%.

And the viability, T/C [26]?
Its viability, T/C is 92.5%.

And the viability, T/C [27]?
The viability, T/C was 81.7%.

And the viability, T/C [28]?
Its viability, T/C is 103%.

What about the viability, T/C [29] of the same compound?
The viability, T/C was 82.7%.

And the viability, T/C [30]?
The viability, T/C was 84%.

What about the viability, T/C [31] of the same compound?
Its viability, T/C is 82.7%.

What about the viability, T/C [32] of the same compound?
The viability, T/C was 70.7%.

And the viability, T/C [33]?
Its viability, T/C is 80.6%.

And the viability, T/C [34]?
Its viability, T/C is 80.7%.

And the viability, T/C [35]?
The viability, T/C was 86.5%.

How did the viability, T/C (compound 0.0316 µM) turn out when `COc1cc(C)[nH]c(=O)c1CN1CCc2c(Cl)cc(C(OC)C3COC3)c(Cl)c2C1=O` (stereo not given) was run?
The viability, T/C was 77.2% and 80.5% and 102%.

What about the viability, T/C (compound 0.1 µM) of the same compound?
The viability, T/C was 79.6% and 90% and 88.8%.

And the viability, T/C (compound 0.316 µM)?
Its viability, T/C is 84.7% and 83.3% and 96%.

And the viability, T/C (compound 1 µM)?
Its viability, T/C is 95.8% and 93.7% and 93.3%.

What about the viability, T/C (compound 3.16 µM) of the same compound?
The viability, T/C was 89.1% and 96.8% and 98.1%.

And the viability, T/C (compound 10 µM)?
The viability, T/C was 85.9% and 98.7% and 92.1%.

What about the IC50 (curve of compound) of the same compound?
Its IC50 is greater than 10000 nM.

From PubChem BioAssay AID1845205 (Molecular Pharmacology Branch, DTP, NCI, 2023)
